In US20230183239A1, “ECTONUCLEOTIDE PYROPHOSPHATASE-PHOSPHODIESTERASE 1 (ENPP-1) INHIBITORS AND USES THEREOF” (AbbVie Inc., priority 2017, published 2023):
Like-named read-outs stand apart in the source and are kept apart here. Each block holds one molecule with its values, some of them ahead of it.

Key:
Format in all cases: biochemical
ENPP1 [1] = target: T1, ENPP1 (Homo sapiens, UniProt P22413); experiment: Indirect quantitation of 2',3'-cGAMP hydrolysis (AMP-Glo Assay kit)
T1 sequence (P22413 1-925): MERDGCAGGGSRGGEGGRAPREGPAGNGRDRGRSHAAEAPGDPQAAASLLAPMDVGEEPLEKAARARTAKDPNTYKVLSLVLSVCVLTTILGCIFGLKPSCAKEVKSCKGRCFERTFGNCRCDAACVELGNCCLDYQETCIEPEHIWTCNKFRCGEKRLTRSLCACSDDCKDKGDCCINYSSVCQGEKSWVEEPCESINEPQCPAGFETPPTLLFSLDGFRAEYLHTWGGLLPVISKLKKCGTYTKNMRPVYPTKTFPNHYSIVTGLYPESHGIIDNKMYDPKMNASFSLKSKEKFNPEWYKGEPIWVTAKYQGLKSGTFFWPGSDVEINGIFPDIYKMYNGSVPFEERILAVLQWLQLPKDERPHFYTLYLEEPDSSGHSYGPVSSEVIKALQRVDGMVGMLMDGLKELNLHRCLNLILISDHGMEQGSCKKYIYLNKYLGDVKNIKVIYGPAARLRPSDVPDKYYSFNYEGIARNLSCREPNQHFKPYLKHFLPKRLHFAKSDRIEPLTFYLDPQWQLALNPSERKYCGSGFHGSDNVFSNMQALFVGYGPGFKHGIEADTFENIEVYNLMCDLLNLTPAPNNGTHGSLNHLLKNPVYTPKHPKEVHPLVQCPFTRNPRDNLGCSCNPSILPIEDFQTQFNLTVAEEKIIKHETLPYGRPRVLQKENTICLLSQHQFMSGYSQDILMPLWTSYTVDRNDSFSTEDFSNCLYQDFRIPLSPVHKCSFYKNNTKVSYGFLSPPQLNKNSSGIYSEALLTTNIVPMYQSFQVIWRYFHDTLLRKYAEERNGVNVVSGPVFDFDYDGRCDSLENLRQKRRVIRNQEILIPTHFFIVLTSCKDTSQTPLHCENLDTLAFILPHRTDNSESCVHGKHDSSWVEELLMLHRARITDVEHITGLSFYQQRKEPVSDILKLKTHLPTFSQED

ENPP1 [2] = target: T1, ENPP1; experiment: ENPP1 enzyme assay with cGAMP substrate (AMP-Glo); set-up: purchased R&D Systems; conditions: for inhibition at 10 µM: 10 µM compound; for inhibition at 1 µM: read-out: cGAMP: % Inhibition at 1 µM
Text: Example B1: ENPP1 Enzyme Assay With cGAMP Substrate
Ectonucleotide pyrophosphatase/phosphodiesterase 1 (ENPP-1) is a transmembrane glycoprotein that hydrolyzes nucleotides and nucleotide derivatives with the formation of nucleoside-5’-monophosphates. […] The 5’-AMP formed from the reaction is detected using the AMP-Glo® Kit (Promega). The assay kit contains two reagents. The first reagent terminates the enzymatic reaction, removes ATP (using adenylyl cyclase), and converts 5’-AMP produced into ADP (using polyphosphate: AMP phosphotransferase). The second reagent converts ADP to ATP (using adenylate kinase) and generates light from ATP using the luciferin/luciferase reaction.
Different concentrations of ENPP1 inhibitors are pre-incubated with 5 ng/well of human ENPP-1 enzyme (R&D Systems) for 15 minutes at 37° C. The reaction is initiated by adding 20 µM 2’3’-cGAMP and incubating for 30 minutes at 37° C. The final assay reaction mixture contains a buffer of 50 mM Tris pH 8.0, 250 mM NaCl, 0.5 mM CaCl2, 1 µM ZnCl2 and 1% DMSO. At the end of the incubation, the reaction is stopped by adding 12 µl of AMP-Glo reagent-1 and mixing the reaction uniformly for 5 minutes, followed by incubation at room temperature for one hour. Then 25 µl of AMP Glo reagent-2 is added to the reaction, mixed uniformly with a pipette, and incubated at room temperature for one hour to convert the ADP formed from reagent-1 to ATP and light. The generated light is measured in a Perkin Elmer Victor® instrument.
(§1) The IC50 values for percent inhibition versus compound concentration are determined by fitting the inhibition curves using a four-parameter variable slope model in GraphPad Prism® software. Ki values are derived from the IC50 values using the Cheng-Prusoff equation: […]

ENPP1 [3] = target: T1, ENPP1; experiment: ENPP1 enzyme assay with TMP-pNP substrate; set-up: purchased R&D Systems; conditions: for inhibition at 10 µM: read-out: TMP-pNP: % inhibition at 10 uM, 10 uM compound; for Ki: Ki from IC50 by Cheng-Prusoff
Procedure: Example B2: ENPP1 Enzyme Assay With TMP-pNP Substrate
Ectonucleotide pyrophosphatase/phosphodiesterase 1 (ENPP-1) is a transmembrane glycoprotein that hydrolyzes nucleotides and nucleotide derivatives with the formation of nucleotide-5’-monophosphates. ENPP-1 hydrolyzes thymidine 5’monophosphate p-nitrophenyl ester (TMP-pNP) to nucleotide-5’-monophosphate and p-nitrophenol, which is a chromogenic product. The amount of p-nitrophenol product formed is measured using its absorbance at 405 nm, which is directly proportional to enzyme activity. Different concentrations of inhibitors are pre-incubated with 15 ng/well of human ENPP-1 enzyme (R&D Systems) for 15 minutes at 37° C. The reaction is initiated by adding 200 µM TMP-pNP and incubating for 10 minutes at 37° C. The final assay reaction mixture contains a buffer of 50 mM Tris pH 8.0, 250 mM NaCl, 0.5 mM CaCl2, 1 µM ZnCl2 and 1% DMSO. The amount of product formed is measured directly in a Tecan® spectrophotometer. Maximal activity control samples (containing enzyme, substrate, and buffer in the absence of ENPP1 inhibitors: MAX) and background control samples (containing enzyme, substrate, and buffer plus a fully inhibitory concentration (3 µM) of the reference ENPP1 Inhibitor, Example 333: MIN) are simultaneously evaluated in order to calculate the percent inhibition at each compound concentration as follows:
as §1, with “curves (percent inhibition versus inhibitor concentration)” for “curves”

ENPP1 [4] = target: T1, ENPP1; experiment: ENPP1 enzyme assay with AMP-pNP substrate (hydrolysis of ATP analog)
Summary of the method: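 Human recombinant ENPP1 (60 ng/well) with 300 µM AMP-pNP in 50 mM Tris-HCl pH 8.5, 250 mM NaCl, 0.5 mM CaCl2, 1 µM ZnCl2, 0.1% DMSO, 20 min at 37 °C.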

ENPP1 [5] = target: T1, ENPP1; experiment: Substrate selectivity ratio, inhibition of cGAMP hydrolysis versus ATP hydrolysis; conditions: ratio Ki AMP-pNP / Ki cGAMP
Procedure: The selectivity ratios for inhibition of cGAMP hydrolysis versus ATP hydrolysis were then calculated as follows: […]

[6] = cGAMP substrate, Ki from IC50 by Cheng-Prusoff, read-out: ENPP1 Inhibition -cGAMP: Ki
[7] = cGAMP substrate, Ki from IC50 by Cheng-Prusoff, read-out: cGAMP: Ki

SMILES: COc1cc2nc(-c3ccncc3)nc(N3CCC(CCNS(N)(=O)=O)CC3)c2cc1OC [Example 6, N-(2-(1-(6,7-dimethoxy-2-(pyridin-4-yl)quinazolin-4-yl)piperidin-4-yl)ethyl)sulfamide]
Ki (ENPP1 [1]; [6]): 0.1 to 1 µM
Ki (ENPP1 [2]; [7]): 0.1 to 1 µM
inhibition at 1 µM (ENPP1 [2]): 25 to 50%
Ki (ENPP1 [3]): > 1 µM

SMILES: COc1cc2ncnc(N3CCN(CCNS(N)(=O)=O)CC3)c2cc1OC [Example 40, N-(2-(4-(6,7-dimethoxyquinazolin-4-yl)piperazin-1-yl)ethyl)sulfamide]
Ki (ENPP1 [4]): 0.1 to 1 µM
Ki (ENPP1 [1]): < 0.1 µM
Substrate Selectivity: Ki_AMP-pNP/Ki_cGAMP (ENPP1 [5]): 24.1
inhibition at 1 µM (ENPP1 [2]): > 75%

SMILES: COc1cc2nc(N(C)C)nc(N3CCC(CCNS(N)(=O)=O)CC3)c2cc1OC [Example 3, N-(2-(1-(2-(dimethylamino)-6,7-dimethoxyquinazolin-4-yl)piperidin-4-yl)ethyl)sulfamide]
Ki (ENPP1 [1]; [6]): 0.1 to 1 µM
inhibition at 1 µM (ENPP1 [2]; 1 µM compound, cGAMP substrate): 25 to 50%
inhibition at 10 µM (ENPP1 [3]): 50 to 75%

SMILES: CCN(C)S(=O)(=O)NCCC1CCN(c2ncnc3cc(OC)c(OC)cc23)CC1 [Example 42, 2-(1-(6,7-dimethoxyquinazolin-4-yl)piperidin-4-yl)ethan-1-amino(N-ethyl-N-methyl)sulfonamide]
Ki (ENPP1 [4]): > 1 µM
Ki (ENPP1 [1]): 0.1 to 1 µM
Substrate Selectivity: Ki_AMP-pNP/Ki_cGAMP (ENPP1 [5]): >96.1
Ki (ENPP1 [2]): 0.1 to 1 µM
Ki (ENPP1 [3]): > 1 µM

SMILES: NS(=O)(=O)NCCC1CCN(c2cc(-c3ccc4ncoc4c3)ncn2)CC1 [Example 9, N-(2-(1-(6-(benzo[d]oxazol-6-yl)pyrimidin-4-yl)piperidin-4-yl)ethyl)sulfamide]
Ki (ENPP1 [1]; [6]): > 1 µM
inhibition at 1 µM (ENPP1 [2]): < 25%

SMILES: NS(=O)(=O)NCCC1CCN(c2ccnc(-c3cccnc3)n2)CC1 [Example 14, N-(2-(1-(2-(pyridin-3-yl)pyrimidin-4-yl)piperidin-4-yl)ethyl)sulfamide]
Ki (ENPP1 [1]; [6]): > 1 µM
inhibition at 1 µM (ENPP1 [2]; 1 µM compound, cGAMP substrate): < 25%

SMILES: NS(=O)(=O)NCCC1CCN(c2ccnc(NC(=O)c3cccnc3)n2)CC1 [Example 7, N-(4-(4-(2-(sulfamoylamino)ethyl)piperidin-1-yl)pyrimidin-2-yl)nicotinamide]
Ki (ENPP1 [1]; [6]): > 1 µM
inhibition at 1 µM (ENPP1 [2]): < 25%

SMILES: NS(=O)(=O)NCCC1CCN(c2ccnc(Nc3ccccn3)n2)CC1 [Example 11, N-(2-(1-(2-(pyridin-2-ylamino)pyrimidin-4-yl)piperidin-4-yl)ethyl)sulfamide]
Ki (ENPP1 [4]): > 1 µM
Ki (ENPP1 [1]): > 1 µM
inhibition at 1 µM (ENPP1 [2]): < 25%

Other lines, results leading:

Ki (ENPP1 [1]; [6]): > 1 µM
inhibition at 10 µM (ENPP1 [2]; cGAMP substrate): < 25%
inhibition at 10 µM (ENPP1 [3]): < 25%
SMILES: NS(=O)(=O)NCCC1CCN(c2ncnc3nc[nH]c23)CC1 [Example 23, N-(2-(1-(9H-purin-6-yl)piperidin-4-yl)ethyl)sulfamide]

Ki (ENPP1 [1]; [6]): > 1 µM
inhibition at 10 µM (ENPP1 [3]): < 25%
SMILES: Cn1cnc2c(N3CCC(CCNS(N)(=O)=O)CC3)ncnc21 [Example 24, N-(2-(1-(9-methyl-9H-purin-6-yl)piperidin-4-yl)ethyl)sulfamide]

Ki (ENPP1 [4]; AMP-pNP substrate (ATP analog), Ki from IC50 by Cheng-Prusoff, read-out: ENPP1 Inhibition _AMP-pNP: Ki): 0.1 to 1 µM
Ki (ENPP1 [1]; [6]): < 0.1 µM
Substrate Selectivity: Ki_AMP-pNP/Ki_cGAMP (ENPP1 [5]): 31.2
Ki (ENPP1 [2]; [7]): < 0.1 µM
Ki (ENPP1 [3]): 0.1 to 1 µM
SMILES: COc1cc2ncnc(N3CCc4c(cccc4NS(N)(=O)=O)C3)c2cc1OC [Example 28, N-(2-(6,7-dimethoxyquinazolin-4-yl)-1,2,3,4-tetrahydroisoquinolin-5-yl)sulfamide]

Ki (ENPP1 [1]; [6]): > 1 µM
inhibition at 10 µM (ENPP1 [2]; cGAMP substrate): < 25%
inhibition at 10 µM (ENPP1 [3]): < 25%
SMILES: Cc1cncnc1N1CCC(CCNS(N)(=O)=O)CC1 [Example 17, N-(2-(1-(5-methylpyrimidin-4-yl)piperidin-4-yl)ethyl)sulfamide]

Ki (ENPP1 [1]; [6]): > 1 µM
inhibition at 10 µM (ENPP1 [3]): < 25%
SMILES: NS(=O)(=O)NCCC1CCN(c2ccncn2)CC1 [Example 18, N-(2-(1-(pyrimidin-4-yl)piperidin-4-yl)ethyl)sulfamide]

Ki (ENPP1 [1]; [6]): 0.1 to 1 µM
inhibition at 10 µM (ENPP1 [2]; cGAMP substrate): > 75%
Ki (ENPP1 [2]; [7]): 0.1 to 1 µM
Ki (ENPP1 [3]): > 1 µM
SMILES: NS(=O)(=O)NCCC1CCN(c2ncnc3ccccc23)CC1 [Example 35, N-(2-(1-(quinazolin-4-yl)piperidin-4-yl)ethyl)sulfamide]

Ki (ENPP1 [1]; [6]): > 1 µM
inhibition at 1 µM (ENPP1 [2]; 1 µM compound, cGAMP substrate): 25 to 50%
SMILES: COc1ccc(C(=O)N2CCC(CCNS(N)(=O)=O)CC2)cc1 [Example 49, N-(2-(1-(4-methoxybenzoyl)piperidin-4-yl)ethyl)sulfamide]

Ki (ENPP1 [1]; [6]): > 1 µM
inhibition at 1 µM (ENPP1 [2]; 1 µM compound, cGAMP substrate): < 25%
SMILES: COc1cc(C(=O)N2CCC(CCNS(N)(=O)=O)CC2)c(N(C)C)cc1OC [Example 45, N-(2-(1-(2-(dimethylamino)-4,5-dimethoxybenzoyl)piperidin-4-yl)ethyl)sulfamide]

Ki (ENPP1 [1]; [6]): 0.1 to 1 µM
inhibition at 1 µM (ENPP1 [2]; 1 µM compound, cGAMP substrate): > 75%
Ki (ENPP1 [2]; [7]): 0.1 to 1 µM
SMILES: COc1cc2ncnc(N3CCC(NS(N)(=O)=O)CC3)c2cc1OC [Example 51, N-(1-(6,7-dimethoxyquinazolin-4-yl)piperidin-4-yl)sulfamide]

Ki (ENPP1 [1]; [6]): > 1 µM
inhibition at 1 µM (ENPP1 [2]; 1 µM compound, cGAMP substrate): < 25%
SMILES: COc1cc(N)c(C(=O)N2CCC(CCNS(N)(=O)=O)CC2)cc1OC [Example 46, N-(2-(1-(2-amino-4,5-dimethoxybenzoyl)piperidin-4-yl)ethyl)sulfamide]

Ki (ENPP1 [1]; [6]): > 1 µM
inhibition at 1 µM (ENPP1 [2]; 1 µM compound, cGAMP substrate): 25 to 50%
SMILES: COc1cccc(C(=O)N2CCC(CCNS(N)(=O)=O)CC2)c1 [Example 48, N-(2-(1-(3-methoxybenzoyl)piperidin-4-yl)ethyl)sulfamide]
